The values below come from patent US20260014146A1, “CDK2 INHIBITORS AND METHODS OF USING THE SAME” (Cedilla Therapeutics, Inc., priority 2022, published 2026).

Where only a bound is given, the exact number is not on record here.

One test concerns the target CDK2/Cyclin E1 (Homo sapiens (Human), UniProt P24941). Kind of test: Caliper LabChip EZ Reader mobility shift assay. The note with it: 2.5 nM CDK2/Cyclin E1 (14-475), 100 μM ATP, 1.5 μM fluorescent peptide; read-out: Caliper Assay (CDK2/CCNE1): IC50. Type of test: biochemical. How it is done: Inhibition of CDK2/Cyclin E1 activity in the presence of compounds of the present disclosure was evaluated using a Caliper LabChip® EZ Reader mobility shift assay. In the assay, activated CDK2/Cyclin E1 catalyzes the phosphorylation of a fluorescently tagged peptide 5-FAM-QSPKKG-CONH2 (PerkinElmer, FL Peptide 18) which induces a difference in capillary electrophoresis mobility. The peptide substrate and product were measured, and the conversion ratio was used to determine the inhibition (as % activity and IC50 values) of CDK2/Cyclin E1. Reactions contained 50 mM HEPES pH 7.5, 10 mM MgCl2, 1 mM EDTA, 2 mM DTT, 0.01% Brij35, 0.5 mg/mL BSA, 0.1% DMSO, 2.5 nM CDK2/Cyclin E1 (14-475), 100 μM ATP, and 1.5 μM fluorescent peptide substrate.
Dose titrations of inhibitors in 100% DMSO were combined with 3.25 nM CDK2/Cyclin E1 (14-475) and 130 μM of ATP in reaction buffer. The mixtures were incubated for 30 minutes before the addition of fluorescent peptide substrate to initiate the kinase reaction. The final conditions were 2.5 nM CDK2/Cyclin E1 (14-475), 100 μM ATP, and 1.5 μM fluorescent peptide. The reactions were stopped after 100 minutes with the addition of EDTA (6 mM final EDTA concentration). The stopped reactions were analyzed on a Caliper LabChip® EZ Reader II. The conversion ratios were normalized to yield % activity, plotted against compound concentration, and fit to a four-parameter equation to determine the IC50 for each compound.

The subject of test [1] is Kuramochi cells labeled with mApple-H2B. The experiment in a line: IncuCyte cell proliferation assay. Type of test: cell-based. The note with it: Kuramochi RB-WT, cell count 0 to 72 hours; method calls it GI50. How it is done: IncuCyte® assay was used to measure the effect of disclosed compounds on cell proliferation. Fluorescent microscopy images of cells were taken immediately after compound treatment and 72 hours later. Image analysis software was used to obtain cell counts as a function of compound concentration. Kuramochi cells labeled with mApple-H2B were seeded on 384-well assay-ready plates. Plates were placed in an IncuCyte® (Sartorius) and scanned at 0 and 72 hours. IncuCyte® software was used to count the number of fluorescent nuclei in each well. The fold change in cell count from 0 to 72 hours in wells treated with increasing compounds concentrations (10 pts, 1/2 log dilution, 20 μM top concentration) was normalized to DMSO control wells. The normalized cell counts were fit with dose response curves and a GI50 was calculated.

Regarding `COC[C@H]1CCCN(C(=O)C(NC(=O)[C@@H]2CN(c3nc(C(F)(F)F)cs3)CC23CN(C(=O)[C@H]2CC2(C)C)C3)[C@@H](C)OCC23CCC(CC2)OC3)C1` (stereo in doubt) [Compound I-17, (S)-N-((2S,3R)-3-(2-oxabicyclo[2.2.2]octan-4-ylmethoxy)-1-((S)-3-(methoxymethyl)piperidin-1-yl)-1-oxobutan-2-yl)-2-((S)-2,2-dimethylcyclopropanecarbonyl)-6-(4-(trifluoromethyl)thiazol-2-yl)-2,6-diazaspiro[3.4]octane-8-carboxamide], the IC50 on CDK2/Cyclin E1 is greater than 10 µM; in test [1], greater than 20 µM.

With `CC(C)(O)C(NC(=O)[C@@H]1CN(C(=O)c2cncs2)CC12CN(c1ncco1)C2)c1cccc(C2CCOCC2)n1` (stereo partly drawn) [Compound I-5, (8S)—N-(2-hydroxy-2-methyl-1-(6-(tetrahydro-2H-pyran-4-yl) 239yridine-2-yl)propyl)-2-(oxazol-2-yl)-6-(thiazole-5-carbonyl)-2,6-diazaspiro[3.4]octane-8-carboxamide], the values for the IC50 (at CDK2/Cyclin E1; in test [1]) were greater than 10 µM and greater than 20 µM, respectively.

Regarding `C[C@@H](OCC1CCC(F)(F)CC1)[C@H](NC(=O)[C@@H]1CN(C(=O)c2cncs2)CC12CN(c1cc[nH]n1)C2)C(C)(C)O` [Compound I-6, (S)-N-((3S,4R)-4-((4,4-difluorocyclohexyl)methoxy)-2-hydroxy-2-methylpentan-3-yl)-2-(1H-pyrazol-3-yl)-6-(thiazole-5-carbonyl)-2,6-diazaspiro[3.4]octane-8-carboxamide], the IC50 at CDK2/Cyclin E1 was greater than 10 µM; in test [1], greater than 20 µM.

As for `C[C@@H](OCC1CCCCC1)[C@H](NC(=O)[C@@H]1CN(c2cccc3[nH]ncc23)CC12CN(C(=O)[C@H]1CC1(C)C)C2)C(=O)N1CCCCC1` [Compound I-13, (S)-N-((2S,3R)-3-(cyclohexylmethoxy)-1-oxo-1-(piperidin-1-yl)butan-2-yl)-2-((S)-2,2-dimethylcyclopropanecarbonyl)-6-(1H-indazol-4-yl)-2,6-diazaspiro[3.4]octane-8-carboxamide], the IC50 lay within 1 to 10 µM on CDK2/Cyclin E1 and 5 to 20 µM in test [1].

With `C[C@@H](OCC1CCCCC1)[C@H](NC(=O)[C@@H]1CN(c2nccc3ncsc23)CC12CN(C(=O)[C@H]1CC1(C)C)C2)C(=O)N1CCCCC1` [Compound I-15, (S)-N-((2S,3R)-3-(cyclohexylmethoxy)-1-oxo-1-(piperidin-1-yl)butan-2-yl)-2-((S)-2,2-dimethylcyclopropanecarbonyl)-6-(thiazolo[5,4-c]pyridin-4-yl)-2,6-diazaspiro[3.4]octane-8-carboxamide], the IC50 on CDK2/Cyclin E1 was 0.1 to 1 µM; in test [1], 5 to 20 µM.

`C[C@@H](OCC12CCC(CC1)OC2)C(NC(=O)[C@@H]1CN(c2cccc3ncsc23)CC12CN(C(=O)[C@H]1CC1(C)C)C2)C(C)(C)O` (stereo partly drawn) [Compound I-16, (S)-N-((3S,4R)-4-((2-oxabicyclo[2.2.2]octan-4-yl)methoxy)-2-hydroxy-2-methylpentan-3-yl)-6-(benzo[d]thiazol-7-yl)-2-((S)-2,2-dimethylcyclopropane-1-carbonyl)-2,6-diazaspiro[3.4]octane-8-carboxamide]: on CDK2/Cyclin E1, the IC50 is greater than 10 µM.

On to `C[C@@H](OCC12CCC(CC1)OC2)[C@H](NC(=O)[C@@H]1CN(c2nccc3ncsc23)CC12CN(C(=O)[C@H]1CC1(C)C)C2)C(=O)N1CCC2(CC1)COC2` [Compound I-19, (S)-N-((2S,3R)-3-(2-oxabicyclo[2.2.2]octan-4-ylmethoxy)-1-oxo-1-(2-oxa-7-azaspiro[3.5]nonan-7-yl)butan-2-yl)-2-((S)-2,2-dimethylcyclopropanecarbonyl)-6-(thiazolo[5,4-c]pyridin-4-yl)-2,6-diazaspiro[3.4]octane-8-carboxamide], for which the IC50 on CDK2/Cyclin E1 was 1 to 10 µM; in test [1], greater than 20 µM.

`COC[C@H]1CCCN(C(=O)[C@@H](NC(=O)[C@@H]2CN(c3cc(O)cc4ncsc34)CC23CN(C(=O)[C@H]2CC2(C)C)C3)[C@@H](C)OCC23CCC(CC2)OC3)C1` [Compound I-20, (S)-N-((2S,3R)-3-(2-oxabicyclo[2.2.2]octan-4-ylmethoxy)-1-((S)-3-(methoxymethyl)piperidin-1-yl)-1-oxobutan-2-yl)-2-((S)-2,2-dimethylcyclopropanecarbonyl)-6-(5-hydroxybenzo[d]thiazol-7-yl)-2,6-diazaspiro[3.4]octane-8-carboxamide]: the IC50 on CDK2/Cyclin E1 was 0.1 to 1 µM; in test [1], 5 to 20 µM.

On to `COC[C@H]1CCCN(C(=O)[C@@H](NC(=O)[C@@H]2CN(c3cc(C(F)(F)F)cc4ncsc34)CC23CN(C(=O)[C@H]2CC2(C)C)C3)[C@@H](C)OCC23CCC(CC2)OC3)C1` [Compound I-21, (S)-N-((2S,3R)-3-(2-oxabicyclo[2.2.2]octan-4-ylmethoxy)-1-((S)-3-(methoxymethyl)piperidin-1-yl)-1-oxobutan-2-yl)-2-((S)-2,2-dimethylcyclopropanecarbonyl)-6-(5-(trifluoromethyl)benzo[d]thiazol-7-yl)-2,6-diazaspiro[3.4]octane-8-carboxamide], for which the IC50 at CDK2/Cyclin E1 was greater than 10 µM; in test [1] it was 5 to 20 µM.

On to `C[C@@H](OCC12CCC(CC1)OC2)[C@H](NC(=O)[C@@H]1CN(c2cccc3ncsc23)CC12CN(C(=O)[C@H]1CC1(C)C)C2)C(=O)N(C)C` [Compound I-22, (S)-N-((2S,3R)-3-(2-oxabicyclo[2.2.2]octan-4-ylmethoxy)-1-(dimethylamino)-1-oxobutan-2-yl)-6-(benzo[d]thiazol-7-yl)-2-((S)-2,2-dimethylcyclopropanecarbonyl)-2,6-diazaspiro[3.4]octane-8-carboxamide], for which the IC50 was 1 to 10 µM on CDK2/Cyclin E1 and greater than 20 µM in test [1].

Turning to `C[C@@H](OCC12CCC(CC1)OC2)[C@H](NC(=O)[C@@H]1CN(c2nccc3ncsc23)CC12CN(C(=O)[C@H]1CC1(C)C)C2)C(=O)N(C)C` [Compound I-23, (S)-N-((2S,3R)-3-(2-oxabicyclo[2.2.2]octan-4-ylmethoxy)-1-(dimethylamino)-1-oxobutan-2-yl)-2-((S)-2,2-dimethylcyclopropanecarbonyl)-6-(thiazolo[5,4-c]pyridin-4-yl)-2,6-diazaspiro[3.4]octane-8-carboxamide], the IC50 on CDK2/Cyclin E1 is 1 to 10 µM; in test [1] it was greater than 20 µM.

Regarding `COC[C@H]1CCCN(C(=O)[C@@H](NC(=O)[C@@H]2CN(c3n[nH]c4ncccc34)CC23CN(C(=O)[C@H]2CC2(C)C)C3)[C@@H](C)OCC23CCC(CC2)OC3)C1` [Compound I-24, (S)-N-((2S,3R)-3-(2-oxabicyclo[2.2.2]octan-4-ylmethoxy)-1-((S)-3-(methoxymethyl)piperidin-1-yl)-1-oxobutan-2-yl)-2-((S)-2,2-dimethylcyclopropanecarbonyl)-6-(1H-pyrazolo[3,4-b]pyridin-3-yl)-2,6-diazaspiro[3.4]octane-8-carboxamide], the IC50 at CDK2/Cyclin E1 was greater than 10 µM.

For `C[C@@H](OCC12CCC(CC1)OC2)[C@H](NC(=O)[C@@H]1CN(C(=O)c2cncs2)CC12CN(c1cc[nH]n1)C2)C(C)(C)O` [Compound I-31, (S)-N-((3S,4R)-4-(2-oxabicyclo[2.2.2]octan-4-ylmethoxy)-2-hydroxy-2-methylpentan-3-yl)-2-(1H-pyrazol-3-yl)-6-(thiazole-5-carbonyl)-2,6-diazaspiro[3.4]octane-8-carboxamide], the IC50 on CDK2/Cyclin E1 is greater than 10 µM.
